Test results as given in ChEMBL document CHEMBL5291721, “A preclinical secondary pharmacology resource illuminates target-adverse drug reaction associations of marketed drugs” (Nat Commun, 2023).

Tests used:
[1] = target: 5-hydroxytryptamine receptor 2B (Homo sapiens, UniProt P41595)
[2] = target: Beta-3 adrenergic receptor (Homo sapiens, UniProt P13945)
[3] = target: T1, Gastric inhibitory polypeptide receptor (Homo sapiens, UniProt P48546)
T1 sequence (P48546 whole entry): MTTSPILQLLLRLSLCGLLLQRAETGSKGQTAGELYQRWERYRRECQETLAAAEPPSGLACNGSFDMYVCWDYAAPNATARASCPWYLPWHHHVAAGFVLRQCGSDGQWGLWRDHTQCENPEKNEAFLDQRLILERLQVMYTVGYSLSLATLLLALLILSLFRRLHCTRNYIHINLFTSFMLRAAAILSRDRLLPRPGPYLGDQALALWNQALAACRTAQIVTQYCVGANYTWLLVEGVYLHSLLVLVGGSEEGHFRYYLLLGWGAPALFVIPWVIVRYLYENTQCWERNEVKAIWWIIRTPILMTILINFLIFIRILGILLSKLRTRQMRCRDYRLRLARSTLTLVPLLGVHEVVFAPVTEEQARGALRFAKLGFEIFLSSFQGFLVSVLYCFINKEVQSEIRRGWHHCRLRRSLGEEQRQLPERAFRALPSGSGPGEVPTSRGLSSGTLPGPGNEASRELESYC

[4] = target: T2, Muscarinic acetylcholine receptor M2 (Homo sapiens, UniProt P08172)
T2 sequence (P08172 whole entry): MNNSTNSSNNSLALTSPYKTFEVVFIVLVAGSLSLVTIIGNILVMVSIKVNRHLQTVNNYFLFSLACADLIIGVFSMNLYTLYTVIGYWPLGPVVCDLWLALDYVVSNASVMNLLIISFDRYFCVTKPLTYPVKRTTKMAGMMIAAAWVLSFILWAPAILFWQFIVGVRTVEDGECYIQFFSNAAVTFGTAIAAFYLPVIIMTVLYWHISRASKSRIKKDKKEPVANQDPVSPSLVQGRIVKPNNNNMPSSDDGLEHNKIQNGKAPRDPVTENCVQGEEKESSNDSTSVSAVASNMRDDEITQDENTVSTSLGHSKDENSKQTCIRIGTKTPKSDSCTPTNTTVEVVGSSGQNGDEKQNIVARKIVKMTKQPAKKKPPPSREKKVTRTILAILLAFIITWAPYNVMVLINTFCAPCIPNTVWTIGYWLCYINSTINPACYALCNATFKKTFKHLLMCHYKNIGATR

B1 bradykinin receptor = target: T3, B1 bradykinin receptor (Homo sapiens, UniProt P46663)
T3 sequence (P46663 whole entry): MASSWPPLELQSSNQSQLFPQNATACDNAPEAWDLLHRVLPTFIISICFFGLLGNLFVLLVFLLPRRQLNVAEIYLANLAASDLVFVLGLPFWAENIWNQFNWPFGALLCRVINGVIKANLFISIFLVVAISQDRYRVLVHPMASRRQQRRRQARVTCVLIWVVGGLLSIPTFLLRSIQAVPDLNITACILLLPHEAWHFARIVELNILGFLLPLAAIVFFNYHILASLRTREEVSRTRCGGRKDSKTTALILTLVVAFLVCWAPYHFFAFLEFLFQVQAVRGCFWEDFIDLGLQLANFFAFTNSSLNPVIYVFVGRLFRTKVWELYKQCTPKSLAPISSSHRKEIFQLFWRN

[5] = target: T4, Corticotropin-releasing factor receptor 2 (Homo sapiens, UniProt Q13324)
T4 sequence (Q13324 whole entry): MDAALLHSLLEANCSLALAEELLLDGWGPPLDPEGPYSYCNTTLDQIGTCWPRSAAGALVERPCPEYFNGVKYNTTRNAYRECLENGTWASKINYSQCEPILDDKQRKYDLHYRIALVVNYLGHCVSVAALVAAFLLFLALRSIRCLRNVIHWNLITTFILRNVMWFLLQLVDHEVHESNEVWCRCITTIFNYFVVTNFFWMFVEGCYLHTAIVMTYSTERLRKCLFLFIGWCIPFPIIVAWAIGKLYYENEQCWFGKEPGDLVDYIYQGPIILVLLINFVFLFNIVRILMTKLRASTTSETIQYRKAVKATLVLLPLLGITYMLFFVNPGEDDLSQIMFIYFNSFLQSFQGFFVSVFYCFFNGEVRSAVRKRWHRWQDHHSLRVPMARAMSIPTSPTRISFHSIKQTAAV

[6] = target: 5-hydroxytryptamine receptor 2A (Homo sapiens, UniProt P28223)
Androgen receptor [7] = target: T5, Androgen receptor (Rattus norvegicus, UniProt P15207); assay type: functional
T5 sequence (P15207 whole entry): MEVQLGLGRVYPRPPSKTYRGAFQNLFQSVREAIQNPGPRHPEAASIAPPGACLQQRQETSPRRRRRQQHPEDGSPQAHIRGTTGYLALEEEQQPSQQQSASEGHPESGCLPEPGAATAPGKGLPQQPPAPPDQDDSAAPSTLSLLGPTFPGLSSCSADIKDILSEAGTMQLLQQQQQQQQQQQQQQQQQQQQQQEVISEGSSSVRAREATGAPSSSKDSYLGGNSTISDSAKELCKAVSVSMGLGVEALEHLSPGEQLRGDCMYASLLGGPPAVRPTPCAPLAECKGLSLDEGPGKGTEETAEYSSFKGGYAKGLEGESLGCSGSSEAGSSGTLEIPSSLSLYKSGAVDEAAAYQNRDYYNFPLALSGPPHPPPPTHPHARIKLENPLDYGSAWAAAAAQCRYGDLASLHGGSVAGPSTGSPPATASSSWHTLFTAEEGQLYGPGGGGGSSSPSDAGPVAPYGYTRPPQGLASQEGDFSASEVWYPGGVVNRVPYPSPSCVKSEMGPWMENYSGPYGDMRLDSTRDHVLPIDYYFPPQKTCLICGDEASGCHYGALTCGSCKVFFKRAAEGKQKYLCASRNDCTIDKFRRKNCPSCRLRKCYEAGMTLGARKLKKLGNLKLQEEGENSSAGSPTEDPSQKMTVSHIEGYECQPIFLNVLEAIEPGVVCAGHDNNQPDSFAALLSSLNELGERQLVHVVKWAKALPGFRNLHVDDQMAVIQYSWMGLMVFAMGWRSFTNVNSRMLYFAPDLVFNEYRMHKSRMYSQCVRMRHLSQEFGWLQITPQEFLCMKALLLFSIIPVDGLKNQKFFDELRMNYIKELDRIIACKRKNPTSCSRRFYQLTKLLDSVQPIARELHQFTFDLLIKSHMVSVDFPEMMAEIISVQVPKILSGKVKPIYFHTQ

Androgen receptor [8] = target: T5, Androgen receptor; assay type: functional; remark: listed apart in the source
Also: assay procedure not described here.

Chain of 5-hydroxytryptamine receptor 2A (P28223 whole entry): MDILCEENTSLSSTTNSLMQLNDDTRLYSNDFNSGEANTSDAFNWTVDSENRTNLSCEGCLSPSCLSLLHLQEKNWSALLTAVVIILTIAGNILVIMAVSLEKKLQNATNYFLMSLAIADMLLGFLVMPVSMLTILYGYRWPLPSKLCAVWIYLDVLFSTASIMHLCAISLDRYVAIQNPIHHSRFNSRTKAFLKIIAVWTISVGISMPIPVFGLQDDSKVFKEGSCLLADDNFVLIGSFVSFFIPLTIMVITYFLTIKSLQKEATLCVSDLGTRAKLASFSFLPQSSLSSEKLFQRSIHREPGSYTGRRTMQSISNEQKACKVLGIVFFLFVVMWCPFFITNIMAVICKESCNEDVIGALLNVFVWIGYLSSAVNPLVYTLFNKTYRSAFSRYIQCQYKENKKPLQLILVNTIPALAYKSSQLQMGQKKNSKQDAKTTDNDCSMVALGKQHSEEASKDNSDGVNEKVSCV
Chain of Beta-3 adrenergic receptor (P13945 whole entry): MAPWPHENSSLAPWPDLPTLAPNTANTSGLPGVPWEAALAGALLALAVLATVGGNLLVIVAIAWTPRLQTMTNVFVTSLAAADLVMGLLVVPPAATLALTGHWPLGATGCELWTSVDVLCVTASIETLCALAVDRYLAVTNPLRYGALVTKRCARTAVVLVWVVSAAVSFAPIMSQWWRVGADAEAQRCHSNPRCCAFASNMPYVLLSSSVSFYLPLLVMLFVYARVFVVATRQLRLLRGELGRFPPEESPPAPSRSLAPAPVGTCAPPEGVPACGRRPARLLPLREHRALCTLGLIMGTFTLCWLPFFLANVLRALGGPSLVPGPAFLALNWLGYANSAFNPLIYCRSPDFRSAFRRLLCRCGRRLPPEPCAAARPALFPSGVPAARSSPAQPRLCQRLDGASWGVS
Chain of 5-hydroxytryptamine receptor 2B (P41595 whole entry): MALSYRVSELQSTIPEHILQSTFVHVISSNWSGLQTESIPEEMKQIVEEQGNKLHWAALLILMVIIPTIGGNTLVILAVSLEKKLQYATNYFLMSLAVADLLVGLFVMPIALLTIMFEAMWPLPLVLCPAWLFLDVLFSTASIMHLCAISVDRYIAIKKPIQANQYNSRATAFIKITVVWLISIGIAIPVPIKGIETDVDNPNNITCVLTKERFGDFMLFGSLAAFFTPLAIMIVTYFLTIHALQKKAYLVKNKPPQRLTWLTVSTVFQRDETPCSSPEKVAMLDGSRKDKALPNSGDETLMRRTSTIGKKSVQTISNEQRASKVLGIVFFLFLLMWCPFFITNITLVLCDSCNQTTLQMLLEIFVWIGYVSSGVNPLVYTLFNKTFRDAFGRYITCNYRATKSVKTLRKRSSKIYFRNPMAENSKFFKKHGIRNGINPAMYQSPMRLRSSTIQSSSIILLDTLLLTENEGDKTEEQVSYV

Compound	AC50 [1] [µM]	AC50 [2] [µM]	AC50 [3] [µM]	AC50 [4] [µM]	AC50 (B1 bradykinin receptor) [µM]	AC50 [5] [µM]	AC50 [6] [µM]	AC50 (Androgen receptor [7]) [µM]	AC50 (Androgen receptor [8]) [µM]
CN[C@@H](C)[C@H](O)c1ccccc1 [EPHEDRINE]	> 10	> 30	> 30	> 10	> 30	> 30			
NC(CO)C(=O)NNCc1ccc(O)c(O)c1O (stereo unspecified) [BENSERAZIDE]	> 10	> 30	> 30	> 10	> 30	> 30	> 10		
NC(=O)C[S+]([O-])C(c1ccccc1)c1ccccc1 (stereo unspecified) [MODAFINIL]	> 10	> 30	> 30	> 10	> 30	> 30			
O=C1CN=C(c2ccccc2)c2cc(Cl)ccc2N1CC(F)(F)F [HALAZEPAM]								> 30	
CCNC(C)Cc1cccc(C(F)(F)F)c1 (stereo unspecified) [FENFLURAMINE]		> 30	> 30	> 10	> 30	> 30			
CN1CCN(C(=O)OC2c3nccnc3C(=O)N2c2ccc(Cl)cn2)CC1 (stereo unspecified) [ZOPICLONE]	> 10	> 30	> 30		> 30	> 30	> 10		
COc1ccc2c(c1)c(CC(=O)OCC(=O)O)c(C)n2C(=O)c1ccc(Cl)cc1 [ACEMETACIN]								> 30	> 30
COC(=O)[C@H]1[C@@H](OC(=O)c2ccccc2)C[C@@H]2CC[C@H]1N2C [COCAINE]								> 30	> 30
Cc1cc(-c2ccccc2)nnc1NCCN1CCOCC1 [MINAPRINE]	1.4	> 30	> 30	> 10	> 30	> 30	> 10		
CCCCCCC(C)(C)c1cc(O)c2c(c1)OC(C)(C)C1CCC(=O)CC21 (stereo unspecified) [NABILONE]								> 30	> 30
COc1ccc2cccc(CCNC(C)=O)c2c1 [AGOMELATINE]	0.879	> 30	> 30	> 10	> 30	> 30			
C#CC1(OC(N)=O)CCCCC1 [ETHINAMATE]							> 10		
O=C(OCCN1CCOCC1)c1cccnc1Nc1cccc(C(F)(F)F)c1 [MORNIFLUMATE]								> 30	> 30
Cc1c(C(=O)Nc2ccc(N3C[C@@H](C)O[C@@H](C)C3)nc2)cccc1-c1ccc(OC(F)(F)F)cc1 [SONIDEGIB]	> 10	> 30	> 30	> 10	> 30	> 30	> 10		
[H]/N=C(/N)c1ccc(NCc2nc3cc(C(=O)N(CCC(=O)O)c4ccccn4)ccc3n2C)cc1 [DABIGATRAN]								> 30	> 30
CN(C)C(=O)OC1N=C(c2ccccc2)c2cc(Cl)ccc2N(C)C1=O (stereo unspecified) [CAMAZEPAM]	> 10	> 30	> 30	> 10	> 30	> 30	> 10		
CC(C)(Oc1ccc(C2CC2(Cl)Cl)cc1)C(=O)O (stereo unspecified) [CIPROFIBRATE]								> 30	> 30
C1COC(NC(C2CC2)C2CC2)=N1 [RILMENIDINE]							> 10		

Compound	AC50 [1] [µM]	AC50 [2] [µM]	AC50 [3] [µM]	AC50 [4] [µM]	AC50 (B1 bradykinin receptor) [µM]	AC50 [5] [µM]	AC50 [6] [µM]	AC50 (Androgen receptor [7]) [µM]	AC50 (Androgen receptor [8]) [µM]
CCCCCCCCCCCC[N+](C)(C)CCOc1ccccc1 [DOMIPHEN]							0.14		
O=C(O)CCCc1ccccc1 [PHENYLBUTANOIC ACID]	> 10	> 30	> 30	> 10	> 10	> 30	> 10		
CN1CCc2cccc3c2[C@H]1Cc1ccc(O)c(O)c1-3 [APOMORPHINE]	1.27	> 30	> 30	> 10	> 30	> 30	0.964		
Cc1ccc(-c2nc3ccc(C)cn3c2CC(=O)N(C)C)cc1 [ZOLPIDEM]	> 10	> 30	> 30	> 10	> 30	> 30	> 10		
CCC(C(=O)O)c1ccc(CC(C)C)cc1 (stereo unspecified) [BUTIBUFEN]								> 30	> 30
COc1c(C)c2c(c(O)c1C/C=C(\C)CCC(=O)OCCN1CCOCC1)C(=O)OC2 [MYCOPHENOLATE MOFETIL]								> 30	> 30
CC[C@]1(O)C[C@@H]2CN(CCc3c([nH]c4ccccc34)[C@@](C(=O)OC)(c3cc4c(cc3OC)N(C)[C@H]3[C@@](O)(C(N)=O)[C@H](O)[C@]5(CC)C=CCN6CC[C@]43[C@@H]65)C2)C1 [VINDESINE]								> 30	> 30
TOCOFERSOLAN								> 30	> 30
CCCCCCCCOc1ccccc1C(=O)Nc1ccc(C(=O)OCC[N+](C)(CC)CC)cc1 [OTILONIUM BROMIDE]	0.712								
C1=Cc2cccc(OCC3CNCCO3)c2C1 (stereo unspecified) [INDELOXAZINE]								> 30	> 30
CN1CC(=O)N2[C@H](c3ccc4c(c3)OCO4)c3[nH]c4ccccc4c3C[C@@H]2C1=O							> 10		
CC(Cc1ccccc1)NCCC(c1ccccc1)c1ccccc1 (stereo unspecified) [PRENYLAMINE]							3.38		
CN1CCCN=C1COC(=O)C(O)(c1ccccc1)C1CCCCC1 (stereo unspecified) [OXYPHENCYCLIMINE]				0.0263					
CCCCN1CCCCC1C(=O)Nc1c(C)cccc1C (stereo unspecified) [BUPIVACAINE]								> 30	> 30
CC(C)[N+](C)(CCC(C(N)=O)(c1ccccc1)c1ccccc1)C(C)C [ISOPROPAMIDE]				0.012					
CC(C)c1c(C(=O)Nc2ccccc2)c(-c2ccccc2)c(-c2ccc(F)cc2)n1CC[C@@H](O)C[C@@H](O)CC(=O)O [ATORVASTATIN]		> 30	> 30		> 30	> 30			
COc1ccc(C(=O)N2CCN(c3ccc4c(c3)CCC(=O)N4)CC2)cc1OC [VESNARINONE]								2.5	
